Tests used:
AICD = AICD by Western blot in SY5Y-APP695WT cells; format: cell-based, human; conditions: AICD increase compared to chloroquine ([AICD]compound/[AICD]CQ) at 3 μM; mean of at least three experiments
Text: (§1) Antibodies. Primary antibodies used in this study for western-blot analysis included a homemade rabbit antiserum against the last 17 amino acids of human APP protein sequence, named APP-Cter-C17 (1/5000 in TBS-M). Anti-β-actin (1/10 000 in TBS-M) was obtained from Sigma. Anti-LC3B (1/2000 in TBS-BSA) and anti-p62/SQSTM1 (1/2000 in TBS-M) antibodies were purchased from Cell Signaling Technology. Secondary antibodies (peroxidase-labeled goat anti-rabbit IgG, 1/5000 or peroxidase-labeled horse anti-mouse IgG, 1/50000 in TBS-T) were obtained from Vector Laboratories.
(§2) Cell culture and treatment. The human neuroblastoma cell line SY5Y-APP^695WT was maintained in Dulbecco's modified Eagle medium (DMEM, high glucose, pyruvate—GIBCO by Life Technologies) supplemented with 10% foetal bovine serum, 2 mM L-glutamine, 1 mM non-essential amino acids and penicillin/streptomycin (GIBCO by Life Technologies) at 37° C. in a 5% CO2 humidified incubator. SY5Y-APP^695WT cells were maintained in 75 cm^2 culture flasks (Falcon) with supplemented DMEM medium until they reached 80% of confluence 24 h before treatment.
(§3) For drug treatment, cells were plated at a rate of 5·10^5 cells per well into 12-well plates (Falcon) and cultured with 1 mL supplemented DMEM cell medium for 24 h before drug exposure. The following day, cell medium was replaced with fresh medium containing drugs diluted at the indicated concentrations. Cells were treated for 24 h. At the end of treatments, the cell medium was collected and kept at −80° C. until use for dosage. Then, cells were rinsed once with PBS and extracted in 100 μL of Laemmli buffer (10 mM Tris, 20% glycerol and 2% Sodium dodecyl sulfate) using a cell-scraper. The cell lysate was further sonicated (30 pulses of 0.5 s, 60 Hz) for 5 min. Total protein concentration was determined using the Pierce BCA Protein Assay Kit (Thermo scientific) according to the manufacturer's instructions. Samples were stored at −80° C. until analysis.
(§4) Western Blot Analysis. Cell protein lysates were prepared for western-blot analysis by diluting the sample with 1 volume of NuPAGE® lithium dodecyl sulfate (LDS) 2× sample buffer supplemented with 20% NuPAGE® sample reducing agents (Invitrogen). Samples were heat 10 min at 100° C. 10 μg of total proteins per well were loaded onto a precast 4-12% Criterion XT Bis-Tris polyacrylamide gel (Bio-Rad) and electrophoresis was achieved after applying a tension of 150 V during 90 min using a Criterion electrophoresis Cell with the NuPAGE® MOPS SDS running buffer (1×). Proteins were transferred to a nitrocellulose membrane of […] pore size (G&E Healthcare) using the Criterion blotting system and applying a tension of 100 V for 45 min. To resolve proteins of low molecular weights such as carboxy-terminal fragments of APP, 12% Criterion XT Bis-Tris polyacrylamide gels (Bio-Rad) were used and electrophoresis was performed during 70 min at 150 V in a NuPAGE® MES SDS running buffer (1×). Proteins were transferred to a nitrocellulose membrane of 0.2 μm pore size (G&E Healthcare) at 100 V for 40 min. Molecular weights calibration was achieved using molecular weight markers (Novex and Magic Marks, Life Technologies). Protein transfer and quality were determined by a reversible Ponceau Red coloration (0.2% Xylidine Ponceau Red and 3% Trichloroacetic acid). Membranes were then blocked in 25 mM Tris-HCl pH 8.0, 150 mM NaCl, 0.1% Tween-20 (v/v) (TBS-T) and 5% (w/v) of skimmed milk (TBS-M) or 5% (w/v) of bovine serum albumin (TBS-BSA) depending on the antibody during 1 h. Membrane was rinsed three-times 10 min in TBS-T before incubation with the primary antibody overnight at 4° C. Membrane was rinsed 3 times 10 min with TBS-T and then incubated with the secondary antibody for 45 min at room temperature (RT). […] Quantifications of protein expression levels were performed with ImageJ Software (NIH). […]

Aβ1-42 peptide secretion = assay: Quantification of secreted Aβ1-42 by ELISA in SY5Y-APP695WT cells; format: cell-based; conditions: Homo sapiens; concentration inhibiting 50% of Aβ1-42 peptide secretion in SY5Y cells; 24 h treatment; mean ± SD of at least two experiments in triplicate
Experimental: (§5) Cell culture and treatment. The human neuroblastoma cell line […] was maintained in Dulbecco's modified Eagle medium (DMEM, high glucose, pyruvate-GIBCO by Life Technologies) supplemented with 10% foetal bovine serum, 2 mM L-glutamine, 1 mM non-essential amino acids and penicillin/streptomycin (GIBCO by Life Technologies) at 37° C. in a 5% CO2 humidified incubator. […] cells were maintained in 75 cm^2 culture flasks (Falcon) with supplemented DMEM medium until they reached 80% of confluence 24 h before treatment. For compounds treatment, a 10 mM stock solution was diluted in freshly supplemented DMEM medium to obtain the precise final concentration of drug. Bafilomycin A1 (BafA1), the vacuolar […] type H+ ATPase inhibitor, was purchased from Merck Millipore and was used at a final dilution of 100 nM. For drug treatment, cells were plated at a rate of 5·10^5 cells per well into 12-well plates (Falcon) and cultured with 1 mL supplemented DMEM cell medium for 24 h before drug exposure. The following day, cell medium was replaced with fresh medium containing drugs diluted at the indicated concentrations. Cells were treated for 24 h. At the end of treatments, the cell medium was collected and kept at -80° C. until use for dosage. Then, cells were rinsed once with PBS and extracted in 100 μL of Laemmli buffer (10 mM Tris, 20% glycerol and 2% Sodium dodecyl sulfate) using a cell-scraper. The cell lysate was further sonicated (30 pulses of 0.5 s, 60 Hz) for 5 min. Total protein concentration was determined using the Pierce BCA Protein Assay Kit (Thermo scientific) according to the manufacturer's instructions. Samples were stored at -80° C. until analysis. Quantification of secreted Aβ1-40/1-42 and sAPPα/sAPPβ. Conditioned media of […] collected at the end of treatments were centrifuged at 1000 g for 5 min to eliminate cells debris. Aβ1-40 and Aβ1-42 peptide concentrations in […] were determined using amyloid-beta 40 and 42 Human ELISA kits (Invitrogen) according to the manufacturer's instructions after 1:10 and 1:2 dilutions of supernatants in ELISA buffer, respectively. sAPPα and sAPPβ concentrations in ng/mL were determined using the sAPPα/sAPPβ kit (Meso Scale Diagnostics, MSD®) according to the manufacturer's instructions. Compounds of the invention (compounds 24-37, 41, 44 and 51-58) were evaluated for their ability to modulate APP processing on SY5Y human neuroblastoma cell line stably expressing the neuronal isoform of human wild-type APP695 (SYSY-APPwt). Aβ levels (Aβ1-40 and Aβ1-42) after treatment with reference and tested compounds were measured by ELISA (Table 2). […] APP carboxy-terminal fragments (αCTFs and AICD) were measured by Western blot and quantified. The effect of reference and tested compounds on αCTFs and AICD are expressed as the intensity of corresponding western-blot bands resulting from the secretase cleavages.

Aβ1-40 peptide secretion = assay: Quantification of secreted Aβ1-40 by ELISA in SY5Y-APP695WT cells; format: cell-based; conditions: Homo sapiens; concentration inhibiting 50% of Aβ1-40 peptide secretion in SY5Y cells; 24 h treatment; mean ± SD of at least two experiments in triplicate
Experimental: as §5

CTFα = assay: APP carboxy-terminal fragment αCTF by Western blot in SY5Y-APP695WT cells; format: cell-based, human; conditions: CTFα increase compared to chloroquine ([CTF]compound/[CTF]CQ) at 3 μM; mean of at least three experiments
Text: as §1, §2, §3, §4

Row | SMILES | IC50 (Aβ1-42 peptide secretion) | IC50 (Aβ1-40 peptide secretion) | AICD vs CQ (3 μM) (AICD) | CTFα vs CQ (3 μM) (CTFα)
1 | CN(C)CCCNc1ccc(-n2ccc(CN3CCN(C)CC3)c2)cc1OCCN1CCCCC1 [Compound 58, N-[3-(dimethylamino)propyl]-4-(3-[(4-methylpiperazin-1-yl)methyl]-1H-pyrrol-1-yl}-2-[2-(piperidin-1-yl)ethoxy]aniline] | 5.4 ± 0.4 µM | 5.1 ± 1.3 µM | 1.8 | 3.0
2 | CN(C)Cc1ccccc1-c1ccc(NCCN2CCCCC2)c(OCCCCN2CCCCC2)c1 [Compound 35, 2′-((Dimethylamino)methyl)-3-(4-(piperidin-1-yl)butoxy)-N-(2-(piperidin-1-yl)ethyl)-[1,1′-biphenyl]-4-amine] | 1.6 ± 0.3 µM | 1.6 ± 0.1 µM | 4.8 | 4.4
3 | c1ccc(-c2ccc(NCCCN3CCCCC3)c(OCCN3CCCCC3)c2)c(CN2CCCCC2)c1 [Compound 27, 2-[2-(Piperidin-1-yl)ethoxy]-N-[3-(piperidin-1-yl)propyl]-4-[2-(piperidin-1-ylmethyl)phenyl]aniline] | 4.1 ± 1.3 µM | 2.6 ± 0.1 µM | 2.7 | 4.3
4 | CN(C)CCCNc1ccc(-n2ccc(CN3CCCCC3)c2)cc1OCCN1CCCCC1 [Compound 56, N-[3-(Dimethylamino)propyl]-2-[2-(piperidin-1-yl)ethoxy]-4-[3-(piperidin-1-ylmethyl)-1H-pyrrol-1-yl]aniline] | 6.3 ± 0.7 µM | 5.3 ± 0.1 µM | 2.7 | 2.5

Second part, led by results:

Row | IC50 (Aβ1-42 peptide secretion) | IC50 (Aβ1-40 peptide secretion) | SMILES | AICD vs CQ (3 μM) (AICD) | CTFα vs CQ (3 μM) (CTFα)
5 | 2.7 ± 0.8 µM | 2.6 ± 0.2 µM | CN1CCN(Cc2ccccc2-c2ccc(NCCCN3CCCCC3)c(OCCN3CCCCC3)c2)CC1 [Compound 29, 4-(2-[(4-Methylpiperazin-1-yl)methyl]phenyl)-2-[2-(piperidin-1-yl)ethoxy]-N-[3-(piperidin-1-yl)propyl]aniline] | 3.7 | 5.1
6 | 3.3 ± 2.1 µM | 2.1 ± 0.6 µM | c1cc(-c2ccc(NCCCN3CCCCC3)c(OCCN3CCCCC3)c2)ccc1CN1CCCCC1 [Compound 24, 2-[2-(Piperidin-1-yl)ethoxy]-N-[3-(piperidin-1-yl)propyl]-4-[4-(piperidin-1-ylmethyl)phenyl]aniline] | 2.5 | 2.6
7 | 3.5 ± 1.1 µM | 3.3 ± 0.2 µM | c1cn(-c2ccc(NCCCN3CCCCC3)c(OCCN3CCCCC3)c2)cc1CN1CCOCC1 [Compound 53, 4-[3-(Morpholin-4-ylmethyl)-1H-pyrrol-1-yl]-2-[2-(piperidin-1-yl)ethoxy]-N-[3-(piperidin-1-yl)propyl]aniline] | 3.3 | 1.7
8 | 3.6 ± 0.1 µM | 3.9 ± 1 µM | CN(C)Cc1ccccc1-c1ccc(NCCCN2CCCCC2)cc1 [Compound 44, 2′-((Dimethylamino)methyl)-N-(3-(piperidin-1-yl)propyl)-[1,1′-biphenyl]-4-amine] | 0.8 | 0.9
9 | 2 ± 0.1 µM | 2.1 ± 0.3 µM | CN(C)Cc1ccccc1-c1ccc(NCCCN2CCCCC2)c(OCCCN2CCCCC2)c1 [Compound 32, 2′-((Dimethylamino)methyl)-3-(3-(piperidin-1-yl)propoxy)-N-(3-(piperidin-1-yl)propyl)-[1,1′-biphenyl]-4-amine] | 5.1 | 4.5

Reference: patent US20210230131A1, “POLYAMINO BIARYL COMPOUNDS AND THEIR USE” (INSERM (INSTITUT NATIONAL DE LA SANTÉ ET DE LA RECHERCHE …, priority 2018, published 2021)
